Entries after “also recorded” stand apart in the source; their conditions may differ. Where a name gives a salt, the structure may show the parent alone.
Target: T1, maltose-trehalose converting enzyme derived from Pimelobacter sp. R48 (Pimelobacter sp., UniProt P72235)
T1 construct: The culture obtained in Experiment 1 was centrifuged to obtain an about 0.5 kg wet cells; endogenous in cells; host or cells: Pimelobacter sp; R48 (FERM BP-4315), enzyme purified from the disrupted wild-type cells
T1 sequence (P72235 1-573): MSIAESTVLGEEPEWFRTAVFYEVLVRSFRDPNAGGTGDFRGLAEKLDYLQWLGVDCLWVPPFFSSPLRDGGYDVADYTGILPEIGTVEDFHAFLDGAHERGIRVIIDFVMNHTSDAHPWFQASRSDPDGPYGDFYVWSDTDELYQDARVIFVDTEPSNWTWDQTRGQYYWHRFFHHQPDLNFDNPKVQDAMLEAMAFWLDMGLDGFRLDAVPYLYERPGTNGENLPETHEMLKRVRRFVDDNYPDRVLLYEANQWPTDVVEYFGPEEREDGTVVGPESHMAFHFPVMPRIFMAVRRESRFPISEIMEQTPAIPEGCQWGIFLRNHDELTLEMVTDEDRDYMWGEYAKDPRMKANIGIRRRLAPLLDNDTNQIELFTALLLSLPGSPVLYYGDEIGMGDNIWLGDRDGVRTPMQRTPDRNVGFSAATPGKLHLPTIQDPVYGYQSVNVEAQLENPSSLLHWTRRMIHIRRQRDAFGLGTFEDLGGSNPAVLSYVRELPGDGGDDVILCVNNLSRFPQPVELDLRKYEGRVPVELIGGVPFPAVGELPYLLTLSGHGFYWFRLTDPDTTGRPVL
Assay: Inhibition of enzyme activity
Type: biochemical
Details: one mM Cu^++ or Hg^++, 50 mM Tris-HCl buffer
Description: The activity of the present maltose-trehalose converting enzyme is assayed as follows: One ml of an enzyme solution is added to one ml of 20 w/v % maltose as a substrate in 10 mM phosphate buffer (pH 7.0), and the mixture solution is incubated at 25° C., 35° C. or 60° C. for 60 min, followed by the heating the solution at 100° C. for 10 min to suspend the enzymatic reaction. To the resultant reaction mixture is precisely diluted by 11-fold with 50 mM phosphate buffer (pH 7.5), and 0.4 ml of the diluted solution is admixed with 0.1 ml of a trehalase solution having one unit/ml of trehalase. The resultant solution is incubated at 45° C. for 120 min, followed by determining the amount of glucose by the glucose-oxidase method. As a control, by using trehalase and an enzyme solution, which were preheated at 100° C. for 10 min to inactivate the enzyme, the activity of the enzyme solution is assayed similarly as above. With the above assay, the content of trehalose, formed by the present maltose-trehalose converting enzyme, is determined based on the amount of glucose formed, and one unit activity of the enzyme is defined as the amount of enzyme which forms one μmole of trehalose per minute. As regards to the reaction temperature, it is set to 25° C. for the enzyme of a microorganism of the genus Pimelobacter; 35° C. for that of the genus Pseudomonas; and 60° C. for that of the genus Thermus.
Effects of temperature and pH on the activity of the present enzyme were studied in accordance with the method as used for assaying the enzyme activity. […] The thermal stability of the enzyme was determined by incubating it in 50 mM phosphate buffers (pH 7.0) in test tubes at different temperatures for 60 min, cooling the test tubes with cold water, and assaying the residual enzyme activity in each buffer. The pH stability of the enzyme was determined by incubating it in 50 mM phosphate buffers having different pHs at 20° C. for 60 min, adjusting the buffers to pH 7.0, and assaying the residual enzyme activity in each buffer.

Row | Compound | Inhibition of activity
1 | [Cu+2] [Cu^++] | inhibited; also recorded: inhibitory
2 | [Hg+2] [Hg^++] | inhibited; also recorded: inhibitory
3 | NC(CO)(CO)CO [Tris-HCl buffer] | inhibited; also recorded: inhibitory

— patent US5736380A, “Maltose-trehalose converting enzyme, and preparation and uses thereof” (Kabushiki Kaisha Hayashibara Seibutsu Kagaku Kenkyujo, priority 1993, dated 1998)
